Assay results reported in patent US7880010B2, “Crystalline forms of a dimethylphenyl compound” (Theravance, Inc., priority 2006, dated 2011).

How the values were obtained:
Experiment in all cases: Radioligand binding assay for muscarinic receptors ([3H]-NMS displacement)
hM5 muscarinic receptor = target: T1, hM5 muscarinic receptor (Homo sapiens, UniProt P08912); conditions: M5 muscarinic receptor subtype, CHO cell membranes, [3H]-NMS 1 nM
T1 construct: purchased PerkinElmer, Inc. (Wellesley, Mass.); host or cells: CHO cell membranes
T1 sequence (P08912 1-532): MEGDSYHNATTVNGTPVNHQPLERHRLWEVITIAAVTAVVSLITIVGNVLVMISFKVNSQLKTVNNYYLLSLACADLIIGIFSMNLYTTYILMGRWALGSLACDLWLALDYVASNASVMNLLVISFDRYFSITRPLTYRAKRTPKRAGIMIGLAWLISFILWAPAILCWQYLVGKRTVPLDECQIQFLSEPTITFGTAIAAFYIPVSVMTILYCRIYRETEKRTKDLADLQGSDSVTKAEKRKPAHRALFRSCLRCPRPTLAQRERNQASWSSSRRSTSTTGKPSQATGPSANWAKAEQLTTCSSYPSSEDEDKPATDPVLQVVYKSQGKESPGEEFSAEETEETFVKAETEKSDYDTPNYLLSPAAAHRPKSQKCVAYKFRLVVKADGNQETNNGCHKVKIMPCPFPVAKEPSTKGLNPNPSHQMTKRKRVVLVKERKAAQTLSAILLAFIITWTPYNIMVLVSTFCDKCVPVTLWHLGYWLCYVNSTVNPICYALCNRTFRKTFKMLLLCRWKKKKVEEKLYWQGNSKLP
Procedure: (§1) CHO cell lines stably expressing cloned human hM1, hM2, hM3 and hM4 muscarinic receptor subtypes, respectively, were grown to near confluency in Hams F-12 media supplemented with 10% FBS and 250 μg/mL Geneticin. The cells were grown in a 5% CO2, 37° C. incubator and lifted with 2 mM EDTA in dPBS. Cells were collected by 5 minute centrifugation at 650×g, and cell pellets were either stored frozen at −80° C. or membranes were prepared immediately for use. For membrane preparation, cell pellets were resuspended in lysis buffer and homogenized with a Polytron PT-2100 tissue disrupter (Kinematica AG; 20 seconds×2 bursts). Crude membranes were centrifuged at 40,000×g for 15 minutes at 4° C. The membrane pellet was then resuspended with re-suspension buffer and homogenized again with the Polytron tissue disrupter. The protein concentration of the membrane suspension was determined by the method described in Lowry et al., 1951, Journal of Biochemistry, 193, 265. All membranes were stored frozen in aliquots at −80° C. or used immediately. Aliquots of prepared hM5 receptor membranes were purchased directly from PerkinElmer, Inc. (Wellesley, Mass.) and stored at −80° C. until use.
(§2) Radioligand binding assays for cloned muscarinic receptors were performed in 96-well microtiter plates in a total assay volume of 100 μL. CHO cell membranes stably expressing either the hM1, hM2, hM3, hM4 or hM5 muscarinic subtype were diluted in assay buffer to the following specific target protein concentrations (μg/well): 10 μg for hM1, 10-15 μg for hM2, 10-20 μg for hM3, 10-20 μg for hM4, and 10-12 μg for hM5 to get similar signals (cpm). The membranes were briefly homogenized using a Polytron tissue disrupter (10 seconds) prior to assay plate addition. Saturation binding studies for determining KD values of the radioligand were performed using L-[N-methyl-^3H]scopolamine methyl chloride ([^3H]-NMS) (TRK666, 84.0 Ci/mmol, Amersham Pharmacia Biotech, Buckinghamshire, England) at concentrations ranging from 0.001 nM to 20 nM. Displacement assays for determination of Ki values of test compounds were performed with [^3H]-NMS at 1 nM and eleven different test compound concentrations. The test compounds were initially dissolved to a concentration of 400 μM in dilution buffer and then serially diluted 5× with dilution buffer to final concentrations ranging from 10 pM to 100 μM. The addition order and volumes to the assay plates were as follows: 25 μL radioligand, 25 μL diluted test compound, and 50 μL membranes. Assay plates were incubated for 60 minutes at 37° C. Binding reactions were terminated by rapid filtration over GF/B glass fiber filter plates (PerkinElmer, Inc.) pre-treated in 1% BSA. Filter plates were rinsed three times with wash buffer (10 mM HEPES) to remove unbound radioactivity. The plates were then air-dried and 50 μL Microscint-20 liquid scintillation fluid (PerkinElmer, Inc.) were added to each well. The plates were then counted in a PerkinElmer Topcount liquid scintillation counter (PerkinElmer, Inc.). Binding data were analyzed by nonlinear regression analysis with the GraphPad Prism Software package (GraphPad Software, Inc., San Diego, Calif.) using the one-site competition model. Ki values for test compounds were calculated from observed IC50 values and the KD value of the radioligand using the Cheng-Prusoff equation (Cheng Y; Prusoff W H. (1973) Biochemical Pharmacology, 22(23):3099-108). […]

hM3 muscarinic receptor = target: T2, hM3 muscarinic receptor (Homo sapiens, UniProt P20309); conditions: M3 muscarinic receptor subtype, CHO cell membranes, [3H]-NMS 1 nM
T2 construct: expressed in transfected cells; host or cells: CHO
T2 sequence (P20309 whole entry): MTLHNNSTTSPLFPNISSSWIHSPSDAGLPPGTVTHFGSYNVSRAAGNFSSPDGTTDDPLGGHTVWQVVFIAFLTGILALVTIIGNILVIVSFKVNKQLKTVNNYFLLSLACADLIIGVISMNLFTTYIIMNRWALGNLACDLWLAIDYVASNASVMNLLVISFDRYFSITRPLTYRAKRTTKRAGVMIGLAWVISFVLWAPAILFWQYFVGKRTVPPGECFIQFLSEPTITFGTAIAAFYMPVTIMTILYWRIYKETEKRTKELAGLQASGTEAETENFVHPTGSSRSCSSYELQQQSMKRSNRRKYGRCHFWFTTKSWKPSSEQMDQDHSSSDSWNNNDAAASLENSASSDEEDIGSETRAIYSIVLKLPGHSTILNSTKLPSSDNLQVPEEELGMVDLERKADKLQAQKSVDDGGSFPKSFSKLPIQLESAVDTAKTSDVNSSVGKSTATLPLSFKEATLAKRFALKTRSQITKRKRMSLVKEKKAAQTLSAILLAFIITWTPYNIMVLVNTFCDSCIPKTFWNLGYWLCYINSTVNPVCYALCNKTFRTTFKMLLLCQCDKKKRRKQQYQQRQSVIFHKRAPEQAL
Procedure: as §1, §2

hM2 muscarinic receptor = target: T3, hM2 muscarinic receptor (Homo sapiens, UniProt P08172); conditions: M2 muscarinic receptor subtype, CHO cell membranes, [3H]-NMS 1 nM
T3 construct: expressed in transfected cells; host or cells: CHO / CHO-K1
T3 sequence (P08172 1-466): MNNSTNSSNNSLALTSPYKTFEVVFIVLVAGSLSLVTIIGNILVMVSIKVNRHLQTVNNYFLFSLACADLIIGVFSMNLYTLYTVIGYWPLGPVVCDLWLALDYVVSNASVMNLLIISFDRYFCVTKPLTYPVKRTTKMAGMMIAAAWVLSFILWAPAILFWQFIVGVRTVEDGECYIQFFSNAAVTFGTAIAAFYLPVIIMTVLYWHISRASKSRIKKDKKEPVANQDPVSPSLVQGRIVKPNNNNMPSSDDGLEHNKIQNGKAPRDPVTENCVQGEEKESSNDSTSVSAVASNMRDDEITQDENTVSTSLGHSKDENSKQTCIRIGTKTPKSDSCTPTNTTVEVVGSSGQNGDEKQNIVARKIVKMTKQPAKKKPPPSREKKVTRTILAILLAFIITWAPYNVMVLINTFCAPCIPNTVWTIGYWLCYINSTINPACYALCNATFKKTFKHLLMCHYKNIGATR
Procedure: as §1, §2

- Ki (hM5 muscarinic receptor): < 10 nM
- Ki (hM3 muscarinic receptor): < 10 nM
- Ki (hM2 muscarinic receptor): < 10 nM
SMILES: Cc1cc(NC(=O)CCN2CCC(OC(=O)Nc3ccccc3-c3ccccc3)CC2)c(C)cc1CNC[C@H](O)c1ccc(O)c(NC=O)c1 [compound of formula I, biphenyl-2-ylcarbamic acid 1-[2-(4-{[(R)-2-(3-formylamino-4-hydroxyphenyl)-2-hydroxyethylamino]methyl}-2,5-dimethylphenylcarbamoyl)ethyl]-piperidin-4-yl ester]
